Test results reported in ChEMBL document CHEMBL1201862, “PubChem BioAssay data set” (2004).
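Briefly, cells in 96-well plates were exposed to five compound concentrations for 48 h, and endpoints were estimated by linear interpolation. GI50: concentration for 50% inhibition of growth.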 Calls of active or inactive are those of the source. Cut-off read from the data, not from the text of the source: active = GI50 up to about 1.1 µM and inactive = higher.

Legend:
Test in all cases: growth of human tumour cells (NCI), 48 h
[1] = test system: SNB-75
[2] = test system: SK-MEL-28
[3] = test system: IGROV-1
[4] = test system: K562
[5] = test system: HOP-92
[6] = test system: HT-29
[7] = test system: A549
[8] = test system: UO-31
[9] = test system: OVCAR-8
[10] = test system: CCRF-CEM
[11] = test system: T47D
[12] = test system: HL-60
[13] = test system: SF-539
[14] = test system: COLO 205
[15] = test system: SF-295
[16] = test system: HCT-116
[17] = test system: SNB-19
[18] = test system: NCI-H23
[19] = test system: EKVX
[20] = test system: SW-620

SMILES	GI50 [1]	GI50 [2]	GI50 [3]	GI50 [4]	GI50 [5]	GI50 [6]	GI50 [7]	GI50 [8]	GI50 [9]	GI50 [10]	GI50 [11]	GI50 [12]	GI50 [13]	GI50 [14]	GI50 [15]	GI50 [16]	GI50 [17]	GI50 [18]	GI50 [19]	GI50 [20]
C/C(=N\NC(=S)N1CCCCCCCCCCCC1)c1ccccn1	0.243 µM (active)	0.33 µM (active)	0.212 µM (active)	0.0223 µM (active)	0.111 µM (active)	0.0356 µM (active)	0.356 µM (active)	0.349 µM (active)	0.147 µM (active)	0.0431 µM (active)	0.233 µM (active)	0.0167 µM (active)	0.199 µM (active)	0.0522 µM (active)	0.324 µM (active)	0.447 µM (active)	0.659 µM (active)	0.379 µM (active)	0.0514 µM (active)	0.0652 µM (active)
Cc1cc2nc(O)c(C(C)C(=O)c3ccc(Cl)cc3)nc2cc1C (stereo not given)	35.4 µM (inactive)	50.8 µM (inactive)	61.9 µM (inactive)	40.6 µM (inactive)	59.3 µM (inactive)	22.1 µM (inactive)	39.8 µM (inactive)	46.9 µM (inactive)	32.5 µM (inactive)	26.7 µM (inactive)	32.3 µM (inactive)	21.2 µM (inactive)	23.4 µM (inactive)	22 µM (inactive)	31.7 µM (inactive)	33.6 µM (inactive)	56.4 µM (inactive)	46.3 µM (inactive)	14.2 µM (inactive)	28.8 µM (inactive)
CCCCC(=O)Nc1ccc2cc(C(=O)OC)c(Cl)nc2n1	> 100 µM (inactive)	> 76.4 µM (inactive)	> 100 µM (inactive)	> 100 µM (inactive)	> 100 µM (inactive)	> 100 µM (inactive)	> 100 µM (inactive)	19.9 µM (inactive)	> 100 µM (inactive)	> 100 µM (inactive)	7.89 µM (inactive)	2.58 µM (inactive)	> 100 µM (inactive)	12.8 µM (inactive)	40.1 µM (inactive)	> 93.5 µM (inactive)	16.5 µM (inactive)	> 100 µM (inactive)	59.7 µM (inactive)	> 100 µM (inactive)
CC(C)(C)c1cc([N+](=O)[O-])cc([N+](=O)[O-])c1O [DINOTERB]	> 10 µM (inactive)	> 10 µM (inactive)	> 10 µM (inactive)	9.29 µM (inactive)	2.77 µM (inactive)	> 10 µM (inactive)	7.64 µM (inactive)	> 10 µM (inactive)	> 10 µM (inactive)	> 10 µM (inactive)	> 10 µM (inactive)	> 10 µM (inactive)	> 10 µM (inactive)	> 10 µM (inactive)	> 10 µM (inactive)	> 10 µM (inactive)	> 10 µM (inactive)	> 10 µM (inactive)	9.86 µM (inactive)	> 10 µM (inactive)
O=S(=O)(O)c1cc(S(=O)(=O)O)c2c(/N=N/c3cccc4ccccc34)c(O)ccc2c1	> 100 µM (inactive)	> 100 µM (inactive)	> 100 µM (inactive)	> 100 µM (inactive)	> 100 µM (inactive)	> 100 µM (inactive)	> 100 µM (inactive)	> 100 µM (inactive)	> 100 µM (inactive)	> 100 µM (inactive)	> 100 µM (inactive)	> 100 µM (inactive)	> 100 µM (inactive)	> 100 µM (inactive)	> 100 µM (inactive)	> 100 µM (inactive)	> 100 µM (inactive)	> 100 µM (inactive)	> 100 µM (inactive)	> 100 µM (inactive)
C[C@]12CCC3C4=C(CCC3C1CCC2=O)C(=O)[C@H]1O[C@H]1C4=O (stereo not given in full)	3.23 µM (inactive)	12.3 µM (inactive)	2.24 µM (inactive)	1.29 µM (inactive)	7.67 µM (inactive)	1.36 µM (inactive)	11 µM (inactive)	2.31 µM (inactive)	2.09 µM (inactive)	1.12 µM (inactive)	0.61 µM (active)	2.67 µM (inactive)	1.92 µM (inactive)	4.33 µM (inactive)	15.3 µM (inactive)	0.453 µM (active)	15.6 µM (inactive)	2.77 µM (inactive)	14.3 µM (inactive)	1.78 µM (inactive)
Cc1cc(C)n(CC(Cn2nc(C)cc2C)=C(/C(Cl)=C(/Cl)Nc2ccc([N+](=O)[O-])cc2)[N+](=O)[O-])n1	4.67 µM (inactive)	7.06 µM (inactive)	2.62 µM (inactive)	1.65 µM (inactive)	2.47 µM (inactive)	3.28 µM (inactive)	3.43 µM (inactive)	2.74 µM (inactive)	3.35 µM (inactive)	0.558 µM (active)	3.33 µM (inactive)	1.54 µM (inactive)	3.52 µM (inactive)	2.67 µM (inactive)	5.87 µM (inactive)	3.7 µM (inactive)	4.49 µM (inactive)	2.43 µM (inactive)	3.85 µM (inactive)	2.42 µM (inactive)
O=C1/C(=C(/Br)I)c2ccccc2-c2ccccc21	15.5 µM (inactive)	21.5 µM (inactive)	13.2 µM (inactive)	2.36 µM (inactive)	2.79 µM (inactive)	6.55 µM (inactive)	15.9 µM (inactive)	2.4 µM (inactive)	16.9 µM (inactive)	2.16 µM (inactive)	11.9 µM (inactive)	0.248 µM (active)	14.6 µM (inactive)	2.04 µM (inactive)	17 µM (inactive)	7.85 µM (inactive)	13.9 µM (inactive)	18.1 µM (inactive)	18 µM (inactive)	2.52 µM (inactive)
